{
  "source": "patent US20130071897A1",
  "about": "“METHOD FOR CONTROLLING UNDESIRABLE BYPRODUCTS FORMATION CAUSED BY CONTAMINATING ORGANISMS IN THE PRODUCTION OF ETHANOL FROM SYNGAS” (COSKATA, INC., priority 2011, published 2013)",
  "key": {"acyl-CoA dehydrogenases": {"tested_on": "acyl-CoA dehydrogenases", "experiment": "In vitro acyl-CoA dehydrogenase ferrocenium assay with C. tyrobutyricum cell-free extract", "assay_type": "biochemical", "settings": "0.5 to 10 mM compound; rate of ferrocenium reduction at 300 nm", "method_in_brief": "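Lysozyme-lysed cell-free extract of early-log C. tyrobutyricum was assayed anaerobically at laboratory temperature in 50 mM Tris-HCl pH 7.6 with 0.05 mM butyryl-CoA, FAD and 0.4 mM ferrocenium. Ferrocenium reduction was followed at 300 nm over 10–20 min, and the rate slope was plotted against compound concentration to give a dose-response slope.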"}, "[1]": {"tested_on": "Clostridium tyrobutyricum", "experiment": "Butyric acid by gas chromatography in Clostridium tyrobutyricum batch fermentations", "assay_type": "cell-based", "settings": "500 ppm; at 11 hours", "procedure": "The concentration of butyric acid is determined by gas chromatography for several of the above samples at the stated points in time. The butyrate production is calculated based upon peak area calculations generated by the gas chromatograph. At 11 hours, the concentration of butyric acid for each of the controls is about 0.95 gram per liter, and the concentration of butyric acid for the samples containing 500 ppm of the inhibitor are about 0.6 gram per liter.\nThe concentration of butyric acid is determined by gas chromatography using the procedure set forth in Example 13. The control is reported only in Table 18."}, "[2]": {"tested_on": "Clostridium tyrobutyricum", "experiment": "Serum bottle batch fermentation of Clostridium tyrobutyricum on fructose, optical density", "assay_type": "cell-based", "settings": "duplicates A and B", "procedure": "Ethyl 3-(trifluoromethyl)benzoate is evaluated in a series of batch fermentations to determine the growth response of butyrogens to the presence of this compound at varying concentrations. The batch fermentations are conducted by anoxically filling 100 mL serum bottles with 15 mL of media having the composition given in Tables 12 and 13. About 0.15 mL of a 50% w/w solution of fructose in water (final fructose concentration about 5 g/L) is provided in the bottles. Duplicate runs are conducted for each concentration.\n(§1) Each bottle is inoculated with 1.5 mL of seed culture inoculum of the strict butyrogen Clostridium tyrobutyricum, which has an OD of about 0.40 (which upon a 10 times dilution provides a starting OD for the fermentation of about 0.04). The bottles are maintained at a temperature of 37° C. Two hours after inoculation of the bottles with the bacteria, the compound is added to different bottles as a solution in 50 μL of N-methylpyrrolidone in the amounts indicated in Table 15. The fermentation process is allowed to progress at 37° C. At selected intervals of time, bacterial growth is measured by reading the optical density (OD) of the fermentation liquid. Optical density is measured by anoxically removing an aliquot of fermentation liquid and adding it to a disposable cuvette. OD's ranging between 0.01 and 0.4 are measured directly, while OD's greater than 0.4 are measure after performing a 1/10 dilution with water.\nIn this example ethyl 4,4,4-trifluoro-3-(trifluoromethyl)crotonate and ethyl 3-trifluoromethyl-4-methoxybenzoate are evaluated by batch fermentation. The batch fermentations are conducted by anoxically filling 100 mL serum bottles with 15 mL of media having the composition given in Tables 12 and 13. About 0.15 mL of a 50% w/w solution of fructose in water (final fructose concentration about 5 g/L) is provided in the bottles. Duplicate runs are conducted for each concentration.\nas §1, with “of about 0.42 (which upon” for “of about 0.40 (which upon”, “of about 0.042). The bottles” for “of about 0.04). The bottles”, “in Table 16 and 17. The fermentation” for “in Table 15. The fermentation”, “0.4 are measured after performing” for “0.4 are measure after performing”"}},
  "note": "“And” between values parts separate entries of the source, which are not always exact repeats. Identical values can stand only once.",
  "data": [
    {"smiles": "CCOC(=O)c1cccc(C(F)(F)F)c1", "note": "[Ethyl 3-trifluormethylbenzoate]", "values": [
      {"measurement": "Dose-Response Slope", "setting": "acyl-CoA dehydrogenases", "value": 9},
      {"measurement": "Concentration of butyric acid", "setting": "[1]", "value": "about 0.6 gram per liter"},
      {"measurement": "O.D. Response to Varying Inhibitor Concentrations", "setting": "[2]; 500 ppm, 0 Hours, added 2 h after inoculation", "value": 0.04},
      {"measurement": "O.D. Response to Varying Inhibitor Concentrations", "setting": "[2]; 500 ppm, 2 Hours, added 2 h after inoculation", "value": 0.09},
      {"measurement": "O.D. Response to Varying Inhibitor Concentrations", "setting": "[2]; 500 ppm, 3.5 Hours", "value": 0.14},
      {"measurement": "O.D. Response to Varying Inhibitor Concentrations", "setting": "[2]; 500 ppm, 5.25 Hours, listed as Ethyl 3-(trifluoromethyl)benzoate", "value": "0.21 and 0.23"},
      {"measurement": "O.D. Response to Varying Inhibitor Concentrations", "setting": "[2]; 500 ppm, 11 Hours, listed as Ethyl 3-(trifluoromethyl)benzoate", "value": "0.90 and 0.89"},
      {"measurement": "O.D. Response to Varying Inhibitor Concentrations", "setting": "[2]; 500 ppm, 20.5 Hours, listed as Ethyl 3-(trifluoromethyl)benzoate", "value": "1.53 and 1.44"},
      {"measurement": "O.D. Response to Varying Inhibitor Concentrations", "setting": "[2]; 1000 ppm, 0 Hours, added 2 h after inoculation", "value": 0.04},
      {"measurement": "O.D. Response to Varying Inhibitor Concentrations", "setting": "[2]; 1000 ppm, 2 Hours, added 2 h after inoculation", "value": 0.09},
      {"measurement": "O.D. Response to Varying Inhibitor Concentrations", "setting": "[2]; 1000 ppm, 3.5 Hours", "value": 0.15},
      {"measurement": "O.D. Response to Varying Inhibitor Concentrations", "setting": "[2]; 1000 ppm, 5.25 Hours, listed as Ethyl 3-(trifluoromethyl)benzoate", "value": "0.21 and 0.22"},
      {"measurement": "O.D. Response to Varying Inhibitor Concentrations", "setting": "[2]; 1000 ppm, 11 Hours, listed as Ethyl 3-(trifluoromethyl)benzoate", "value": "0.90 and 0.87"},
      {"measurement": "O.D. Response to Varying Inhibitor Concentrations", "setting": "[2]; 1000 ppm, 20.5 Hours, listed as Ethyl 3-(trifluoromethyl)benzoate", "value": "1.42 and 1.37"}
    ]}
  ]
}
